Assay [1] relates to A549 cells infected with influenza A virus. Type of assay: cell-based, human. Particulars: for decrease of the SOD1 protein during viral infection: A549 cells treated in vitro with inhibitor of autophagy or endoplasmic reticulum stress.
Assay [2] concerns influenza virus. More on the design: species or system mice (C57BL/6N or BALB/c). Particulars: mouse, in vivo.
In assay [3] the test system is influenza virus. It is filed as in vivo, mice.

Turning to `O=C(O)CCCc1ccccc1` [4-PBA, 4-phenylbutyrate], the “decrease of the SOD1 protein during viral infection” value in assay [1] was “reduced significantly”. In the assay on influenza virus [2], the “production of ROS compared to non-administration group” value was “decreased significantly”.
As for `CCN(CC)CCCC(C)Nc1ccnc2cc(Cl)ccc12` (stereo not drawn) [chloroquine], in assay [1], the “amount of SOD1 protein” value is “more distinct than that of 3-MA” and the “decrease of the SOD1 protein during viral infection” value is recorded as “reduced significantly”.
Regarding `Cn1cnc(N)c2ncnc1-2` [3-MA, 3-methyladenine], in assay [1], the LC3 conversion entry was “decreased”, the “amount of SOD1 protein” value is reported as “increase”, the “expression of viral protein PB1” value is on record as “decreased expression” and the “decrease of the SOD1 protein during viral infection” value is on record as “reduced significantly”.
As for “SOD1: superoxide dismutase 1, ROS scavenger; human SOD1 gene expressed in bacteria from pET-SOD1”, in the assay on influenza virus [2], the “amount of ROS in the bronchoalveolar lavage fluid” value was “decreased” and the “amount of SOD1 in lung tissue” value was “recovered to a level close to that before the infection”. Further, in the assay on influenza virus [3] (mouse, in vivo), the body weight decrease entry was “slightly inhibited”.
For `CC(=O)N[C@@H](CS)C(=O)O` [NAC, N-acetylcysteine], in the assay on influenza virus [3] ([…], SOD1 50 units/mouse, NAC 1 mg/mouse, 4-PBA 2.5 mg/mouse, catalase 50 units/mouse), the “body weight (survivability)” value is “significant difference in body weight”.

(Values after US12496332B2 (priority 2019, dated 2025).)
